# Laboratory results as given in patent US11028077B2, “Crystalline pharmaceutical and methods of preparation and use thereof” (NOVARTIS PHARMACEUTICALS CORPORATION, priority 2008, dated 2021).
# Like-named read-outs stand apart in the source and are kept apart here.
# Experiments:
# [1] = Rat ocular pharmacokinetics of [14C]-compound (ocular tissue levels); format: in vivo; conditions: for Concentration, Aqueous humor: ocular dosing in rats
# [2] = Single dose ocular and IV ADME study with [14C]-compound in rats, quantitative whole body autoradiography; format: in vivo, rat; conditions: for excretion in feces, % of the administered radioactivity: 0 to 168 hours postdose
# [3] = tested on: human mononuclear cells (PBMC) stimulated with staphylococcal enterotoxin B (SEB); test: cells; format: cell-based
# [4] = 0.5 hour postdose, topical ocular 1 mg/eye
# [5] = 0.5 hour postdose, topical ocular 1 mg/eye, above upper limit of quantification
# [6] = 8 hours postdose, topical ocular 1 mg/eye
# [7] = 24 hours postdose, topical ocular 1 mg/eye
# [8] = at 2 hours postdose vs 0.5 hour
smiles,measurement,setting,value
CS(=O)(=O)c1cccc(C[C@H](NC(=O)c2c(Cl)cc3c(c2Cl)CCN(C(=O)c2ccc4ccoc4c2)C3)C(=O)O)c1 [[^14C]-compound of Formula I],"Concentration, Conjunctiva (bulbar)",[1]; 0.5 hour after administration,31500 ng Equivalents [^14C]-compound of Formula I/g tissue
same,"Concentration, Conjunctiva (palpebral)",[1]; 0.5 hour after administration,26300 ng Equivalents [^14C]-compound of Formula I/g tissue
same,"Concentration, Cornea",[1]; 0.5 hour after administration,17150 ng Equivalents [^14C]-compound of Formula I/g tissue
same,"Concentration, Iris-ciliary body",[1]; 0.5 hour after administration,17550 ng Equivalents [^14C]-compound of Formula I/g tissue
same,"Concentration, Lens",[1]; 0.5 hour after administration,38.8 ng Equivalents [^14C]-compound of Formula I/g tissue
same,"Concentration, Optic Nerve",[1]; 0.5 hour after administration,796 ng Equivalents [^14C]-compound of Formula I/g tissue
same,"Concentration, Retina and Choroid (with RPE)",[1]; 0.5 hour after administration,510 ng Equivalents [^14C]-compound of Formula I/g tissue
same,"Concentration, Sclera",[1]; 0.5 hour after administration,2750 ng Equivalents [^14C]-compound of Formula I/g tissue
same,"Concentration, Vitreous Humor",[1]; 0.5 hour after administration,1330 ng Equivalents [^14C]-compound of Formula I/g tissue
same,"Concentration, Aqueous humor",[1]; 0.5 hour after administration,1770 ng Equivalents [^14C]-compound of Formula I/g tissue
same,"Concentration, Conjunctiva (bulbar)",[1]; 4.0 hours after administration,4480 ng Equivalents [^14C]-compound of Formula I/g tissue
same,"Concentration, Conjunctiva (palpebral)",[1]; 4.0 hours after administration,21830 ng Equivalents [^14C]-compound of Formula I/g tissue
same,"Concentration, Cornea",[1]; 4.0 hours after administration,1346 ng Equivalents [^14C]-compound of Formula I/g tissue
same,"Concentration, Iris-ciliary body",[1]; 4.0 hours after administration,500 ng Equivalents [^14C]-compound of Formula I/g tissue
same,"Concentration, Lens",[1]; 4.0 hours after administration,9.69 ng Equivalents [^14C]-compound of Formula I/g tissue
same,"Concentration, Optic Nerve",[1]; 4.0 hours after administration,0 ng Equivalents [^14C]-compound of Formula I/g tissue
same,"Concentration, Retina and Choroid (with RPE)",[1]; 4.0 hours after administration,46.7 ng Equivalents [^14C]-compound of Formula I/g tissue
same,"Concentration, Sclera",[1]; 4.0 hours after administration,387 ng Equivalents [^14C]-compound of Formula I/g tissue
same,"Concentration, Vitreous Humor",[1]; 4.0 hours after administration,183 ng Equivalents [^14C]-compound of Formula I/g tissue
same,"Concentration, Aqueous humor",[1]; 4.0 hours after administration,116 ng Equivalents [^14C]-compound of Formula I/g tissue
same,"radioactivity concentration, eye",[2]; [4],18100 ng equivalents [^14C]-compound of Formula I/g
same,"radioactivity concentration, liver",[2]; [4],272 ng equivalents [^14C]-compound of Formula I/g
same,"radioactivity concentration, uveal tract",[2]; [4],9330 ng equivalents [^14C]-compound of Formula I/g
same,"radioactivity concentration, esophageal contents","[2]; 0.5 hour postdose, topical ocular 1 mg/eye, male Sprague Dawley rats, above upper limit of quantification",399000 ng equivalents [^14C]-compound of Formula I/g
same,"radioactivity concentration, nasal turbinates",[2]; [5],352000 ng equivalents [^14C]-compound of Formula I/g
same,"radioactivity concentration, small intestinal contents",[2]; [5],349000 ng equivalents [^14C]-compound of Formula I/g
same,"radioactivity level, eye lens","[2]; 2 hours postdose, topical ocular 1 mg/eye",BLQ
same,"radioactivity concentration, cecum contents",[2]; [6],57600 ng equivalents [^14C]-compound of Formula I/g
same,"radioactivity concentration, large intestinal contents",[2]; [6],133000 ng equivalents [^14C]-compound of Formula I/g
same,"radioactivity concentration, uveal tract","[2]; 12 hours postdose, topical ocular 1 mg/eye",610 ng equivalents [^14C]-compound of Formula I/g
same,"radioactivity concentration, cecum contents",[2]; [7],5870 ng equivalents [^14C]-compound of Formula I/g
same,"radioactivity concentration, large intestinal contents",[2]; [7],18000 ng equivalents [^14C]-compound of Formula I/g
same,"excretion in feces, % of the administered radioactivity",[2]; IV administration 10 mg/kg,~95%
same,"decline of radioactivity concentration, esophageal contents",[2]; [8],~100 fold
same,"decline of radioactivity concentration, esophagus",[2]; [8],approximately 50 fold
same,"excretion in feces, % of the administered radioactivity",[2]; ocular administration 1 mg/eye,approximately 60%
same,"Urinary excretion, % of the administered radioactivity",[2]; ocular or IV administration,up to 2%
same,"metabolites in pooled plasma, urine and fecal homogenates","[2]; rats, up to 168 hrs following topical ocular or IV dose",no metabolites were isolated
"O=C(NC(Cc1cc(=O)[nH]c2ccccc12)C(=O)O)c1ccc(Cl)cc1 (stereo not drawn) [Rebamipide, reference compound]",EC50,[3]; read-out: EC50 Cytokine Release GM-CSF,> 1000 µM
same,EC50,[3]; read-out: EC50 Cytokine Release IFNγ,> 1000 µM
same,EC50,[3]; read-out: EC50 Cytokine Release IL-1α,> 1000 µM
same,EC50,[3]; read-out: EC50 Cytokine Release IL-1β,> 1000 µM
same,EC50,[3]; read-out: EC50 Cytokine Release IL-2,> 1000 µM
same,EC50,[3]; read-out: EC50 Cytokine Release IL-3,> 1000 µM
same,EC50,[3]; read-out: EC50 Cytokine Release IL-4,> 1000 µM
same,EC50,[3]; read-out: EC50 Cytokine Release IL-5,> 1000 µM
same,EC50,[3]; read-out: EC50 Cytokine Release IL-6,> 1000 µM
same,EC50,[3]; read-out: EC50 Cytokine Release IL-10,> 1000 µM
same,EC50,[3]; read-out: EC50 Cytokine Release IL-12p40,> 1000 µM
same,EC50,[3]; read-out: EC50 Cytokine Release IL-13,> 1000 µM
same,EC50,[3]; read-out: EC50 Cytokine Release IP-10,> 1000 µM
same,EC50,[3]; read-out: EC50 Cytokine Release MCP-1,> 1000 µM
same,EC50,[3]; read-out: EC50 Cytokine Release MIP-1α,> 1000 µM
same,EC50,[3]; read-out: EC50 Cytokine Release TNF-α,> 1000 µM
